ChEMBL document CHEMBL1909046, “DrugMatrix in vitro pharmacology data”

Legend:
Melanocortin receptor 3 = Melanocortin receptor 3 (Homo sapiens, UniProt P41968); assay type: cell membranes, Membrane; settings: hek293; note: in other assays of this panel Not Active means under 50% inhibition at 10 µM
[1] = target: Tyrosine-protein kinase Fyn (Homo sapiens, UniProt P06241); experiment: biochemical; assay type: cell-based, Insect cells;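 note: enzymatic inhibition of Fyn kinase activity measured with Poly(Glu:Tyr) as the phosphorylation substrate; in other assays of this panel Not Active means under 50% inhibition at 10 µM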
Chain of Tyrosine-protein kinase Fyn (P06241 whole entry): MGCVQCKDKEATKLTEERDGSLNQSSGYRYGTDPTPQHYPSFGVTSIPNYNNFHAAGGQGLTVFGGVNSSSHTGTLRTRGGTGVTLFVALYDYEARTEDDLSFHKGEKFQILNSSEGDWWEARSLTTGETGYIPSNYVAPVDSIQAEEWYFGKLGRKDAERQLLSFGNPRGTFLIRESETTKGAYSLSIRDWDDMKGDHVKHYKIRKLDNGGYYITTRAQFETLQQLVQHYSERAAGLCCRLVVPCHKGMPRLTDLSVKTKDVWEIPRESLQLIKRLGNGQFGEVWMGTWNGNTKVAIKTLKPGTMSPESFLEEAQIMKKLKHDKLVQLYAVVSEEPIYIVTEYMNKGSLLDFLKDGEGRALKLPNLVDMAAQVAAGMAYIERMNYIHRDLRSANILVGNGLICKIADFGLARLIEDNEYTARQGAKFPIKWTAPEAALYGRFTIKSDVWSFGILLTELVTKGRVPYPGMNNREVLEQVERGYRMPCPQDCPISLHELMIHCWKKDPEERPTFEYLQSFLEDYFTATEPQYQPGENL

Progesterone receptor = target: T1, Progesterone receptor (Bos taurus, UniProt Q690N0); experiment: DRUGMATRIX: Progesterone radioligand binding (ligand: [3H] R-5020); assay type: tissue-based, Uterus; settings: Not Active = under 50% inhibition at 10 µM
T1 sequence (Q690N0 whole entry): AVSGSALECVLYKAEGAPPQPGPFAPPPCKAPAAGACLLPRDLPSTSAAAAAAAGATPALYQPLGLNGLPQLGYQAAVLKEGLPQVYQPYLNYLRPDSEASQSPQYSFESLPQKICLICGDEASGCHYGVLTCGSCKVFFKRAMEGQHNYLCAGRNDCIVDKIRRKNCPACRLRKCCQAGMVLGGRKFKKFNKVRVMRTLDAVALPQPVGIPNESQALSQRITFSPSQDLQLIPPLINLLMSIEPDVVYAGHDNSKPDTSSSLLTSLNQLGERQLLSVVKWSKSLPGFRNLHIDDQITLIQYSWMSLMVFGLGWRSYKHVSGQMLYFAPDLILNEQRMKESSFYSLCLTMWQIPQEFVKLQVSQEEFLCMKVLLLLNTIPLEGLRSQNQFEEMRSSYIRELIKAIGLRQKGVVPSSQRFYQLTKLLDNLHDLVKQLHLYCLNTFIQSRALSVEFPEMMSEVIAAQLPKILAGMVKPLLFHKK

Leukotriene C4 synthase = target: T2, Leukotriene C4 synthase (Cavia porcellus, UniProt A6XA80); experiment: biochemical; assay type: tissue-based, Lung;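 note: enzyme inhibition assay of leukotriene C4 synthase, using LTA4 as the substrate; in other assays of this panel Not Active means under 50% inhibition at 10 µM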
T2 sequence (A6XA80 whole entry): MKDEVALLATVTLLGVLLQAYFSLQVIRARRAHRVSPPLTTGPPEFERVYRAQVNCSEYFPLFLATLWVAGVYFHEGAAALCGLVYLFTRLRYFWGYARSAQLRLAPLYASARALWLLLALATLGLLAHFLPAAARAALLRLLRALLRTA

[2] = DRUGMATRIX: Nicotinic Acetylcholine radioligand binding (ligand: [125I] Epibatidine); assay type: cell membranes, Membrane; settings: imr-32; Not Active = under 50% inhibition at 10 µM
[3] = target: Beta-1 adrenergic receptor (Homo sapiens, UniProt P08588); experiment: DRUGMATRIX: Adrenergic beta1 radioligand binding (ligand: [125I] Cyanopindolol); assay type: cell membranes, CHO-K1, Membrane; settings: cho-k1; Not Active = under 50% inhibition at 10 µM
Chain of Beta-1 adrenergic receptor (P08588 whole entry): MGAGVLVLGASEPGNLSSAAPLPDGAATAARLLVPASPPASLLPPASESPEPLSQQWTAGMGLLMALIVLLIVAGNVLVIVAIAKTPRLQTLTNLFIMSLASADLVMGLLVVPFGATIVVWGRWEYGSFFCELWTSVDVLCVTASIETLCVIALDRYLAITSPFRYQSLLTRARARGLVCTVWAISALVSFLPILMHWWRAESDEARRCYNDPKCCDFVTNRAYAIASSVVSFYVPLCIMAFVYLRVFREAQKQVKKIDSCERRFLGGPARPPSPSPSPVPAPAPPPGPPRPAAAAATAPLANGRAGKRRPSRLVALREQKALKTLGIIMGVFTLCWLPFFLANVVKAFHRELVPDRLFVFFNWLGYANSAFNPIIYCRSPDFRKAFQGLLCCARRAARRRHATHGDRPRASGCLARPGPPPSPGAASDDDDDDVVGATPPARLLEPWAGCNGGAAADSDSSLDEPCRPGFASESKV

[4] = target: T3, Alpha-1A adrenergic receptor (Rattus norvegicus, UniProt P43140); experiment: DRUGMATRIX: Alpha-1A adrenergic receptor radioligand binding (ligand: prazosin); assay type: cell membranes, Wistar, Submaxillary gland, Membrane; settings: Not Active = under 50% inhibition at 10 µM
T3 sequence (P43140 whole entry): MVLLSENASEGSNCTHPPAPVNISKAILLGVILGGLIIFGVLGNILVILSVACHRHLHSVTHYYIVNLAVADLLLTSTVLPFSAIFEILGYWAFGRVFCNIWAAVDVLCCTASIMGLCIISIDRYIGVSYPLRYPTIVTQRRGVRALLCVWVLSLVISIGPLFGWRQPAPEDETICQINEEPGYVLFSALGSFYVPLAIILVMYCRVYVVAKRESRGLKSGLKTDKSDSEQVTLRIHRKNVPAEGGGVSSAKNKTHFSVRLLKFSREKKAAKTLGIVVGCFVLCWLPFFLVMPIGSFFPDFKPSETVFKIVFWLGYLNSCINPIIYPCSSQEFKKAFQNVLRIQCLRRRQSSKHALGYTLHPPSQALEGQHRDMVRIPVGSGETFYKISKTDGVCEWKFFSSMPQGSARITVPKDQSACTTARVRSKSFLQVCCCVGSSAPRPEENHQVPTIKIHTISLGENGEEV

D(4) dopamine receptor = target: T4, D(4) dopamine receptor (Homo sapiens, UniProt P21917); experiment: DRUGMATRIX: Dopamine D4.2 radioligand binding (ligand: [3H] Spiperone); assay type: cell membranes, CHO-K1, Membrane; settings: cho-k1; Not Active = under 50% inhibition at 10 µM
T4 sequence (P21917 whole entry): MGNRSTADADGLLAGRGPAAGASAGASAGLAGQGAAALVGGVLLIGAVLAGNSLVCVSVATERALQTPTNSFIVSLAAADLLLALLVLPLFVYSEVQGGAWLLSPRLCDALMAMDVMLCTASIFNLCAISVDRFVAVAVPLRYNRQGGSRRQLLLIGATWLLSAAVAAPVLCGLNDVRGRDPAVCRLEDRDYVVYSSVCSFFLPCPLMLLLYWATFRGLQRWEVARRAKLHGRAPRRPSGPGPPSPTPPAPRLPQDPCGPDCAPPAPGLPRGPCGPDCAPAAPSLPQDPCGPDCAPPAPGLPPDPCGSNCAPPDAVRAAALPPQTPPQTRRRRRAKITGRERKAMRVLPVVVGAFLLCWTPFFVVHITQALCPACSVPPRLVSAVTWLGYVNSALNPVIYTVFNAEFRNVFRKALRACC

[5] = DRUGMATRIX: Glutamate, NMDA, Phencyclidine radioligand binding (ligand: [3H] TCP); assay type: cell membranes, Rattus norvegicus, Wistar, Cerebral cortex, Membrane; settings: Not Active = under 50% inhibition at 10 µM
Histamine H2 receptor = Histamine H2 receptor (Homo sapiens, UniProt P25021); assay type: cell membranes, CHO-K1, Membrane; settings: cho-k1; note: in other assays of this panel Not Active means under 50% inhibition at 10 µM
Chain of Histamine H2 receptor (P25021 whole entry): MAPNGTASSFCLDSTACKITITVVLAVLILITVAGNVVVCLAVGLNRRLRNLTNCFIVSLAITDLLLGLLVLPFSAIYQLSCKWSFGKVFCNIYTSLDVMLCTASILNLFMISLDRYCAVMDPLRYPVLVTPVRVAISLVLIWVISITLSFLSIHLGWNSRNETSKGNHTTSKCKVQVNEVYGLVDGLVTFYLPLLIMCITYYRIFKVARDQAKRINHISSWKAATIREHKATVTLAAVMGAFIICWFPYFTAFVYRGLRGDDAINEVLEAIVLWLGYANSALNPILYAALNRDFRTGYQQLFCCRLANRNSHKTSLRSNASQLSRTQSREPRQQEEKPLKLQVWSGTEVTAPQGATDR

Melanocortin receptor 4 = Melanocortin receptor 4 (Homo sapiens, UniProt P32245); assay type: cell membranes, Membrane; settings: hek293; note: in other assays of this panel Not Active means under 50% inhibition at 10 µM
Chain of Melanocortin receptor 4 (P32245 whole entry): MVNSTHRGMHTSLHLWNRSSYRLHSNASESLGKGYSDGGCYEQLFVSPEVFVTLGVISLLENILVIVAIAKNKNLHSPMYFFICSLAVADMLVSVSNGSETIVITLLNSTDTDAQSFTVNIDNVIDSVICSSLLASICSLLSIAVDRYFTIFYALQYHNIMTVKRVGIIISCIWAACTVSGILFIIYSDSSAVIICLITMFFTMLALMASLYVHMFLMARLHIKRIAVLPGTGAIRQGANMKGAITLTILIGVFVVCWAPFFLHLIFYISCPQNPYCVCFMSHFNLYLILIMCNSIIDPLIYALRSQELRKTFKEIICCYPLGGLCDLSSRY

[6] = DRUGMATRIX: Platelet-Derived Growth Factor (PDGF) radioligand binding (ligand: [125I] PDGF); assay type: cell-based; settings: nih3t3; Not Active = under 50% inhibition at 10 µM
[7] = DRUGMATRIX: GABAA, Chloride Channel, TBOB radioligand binding (ligand: [3H] TBOB); assay type: cell membranes, Rattus norvegicus, Wistar, Cerebral cortex, Membrane; settings: Not Active = under 50% inhibition at 10 µM
[8] = DRUGMATRIX: beta-Lactamase enzyme inhibition (substrate: Nitrocefin); parameters: species or system Bacillus cereus; settings: Not Active = under 50% inhibition at 10 µM
[9] = DRUGMATRIX: Calcium Channel Type L, Benzothiazepine radioligand binding (ligand: [3H] Diltiazem); assay type: cell membranes, Rattus norvegicus, Wistar, Brain, Membrane; settings: Not Active = under 50% inhibition at 10 µM
[10] = target: Vascular endothelial growth factor receptor 1 (Homo sapiens, UniProt P17948); assay type: cell-based; settings: huvec; note: in other assays of this panel Not Active means under 50% inhibition at 10 µM
Chain of Vascular endothelial growth factor receptor 1 (P17948 whole entry): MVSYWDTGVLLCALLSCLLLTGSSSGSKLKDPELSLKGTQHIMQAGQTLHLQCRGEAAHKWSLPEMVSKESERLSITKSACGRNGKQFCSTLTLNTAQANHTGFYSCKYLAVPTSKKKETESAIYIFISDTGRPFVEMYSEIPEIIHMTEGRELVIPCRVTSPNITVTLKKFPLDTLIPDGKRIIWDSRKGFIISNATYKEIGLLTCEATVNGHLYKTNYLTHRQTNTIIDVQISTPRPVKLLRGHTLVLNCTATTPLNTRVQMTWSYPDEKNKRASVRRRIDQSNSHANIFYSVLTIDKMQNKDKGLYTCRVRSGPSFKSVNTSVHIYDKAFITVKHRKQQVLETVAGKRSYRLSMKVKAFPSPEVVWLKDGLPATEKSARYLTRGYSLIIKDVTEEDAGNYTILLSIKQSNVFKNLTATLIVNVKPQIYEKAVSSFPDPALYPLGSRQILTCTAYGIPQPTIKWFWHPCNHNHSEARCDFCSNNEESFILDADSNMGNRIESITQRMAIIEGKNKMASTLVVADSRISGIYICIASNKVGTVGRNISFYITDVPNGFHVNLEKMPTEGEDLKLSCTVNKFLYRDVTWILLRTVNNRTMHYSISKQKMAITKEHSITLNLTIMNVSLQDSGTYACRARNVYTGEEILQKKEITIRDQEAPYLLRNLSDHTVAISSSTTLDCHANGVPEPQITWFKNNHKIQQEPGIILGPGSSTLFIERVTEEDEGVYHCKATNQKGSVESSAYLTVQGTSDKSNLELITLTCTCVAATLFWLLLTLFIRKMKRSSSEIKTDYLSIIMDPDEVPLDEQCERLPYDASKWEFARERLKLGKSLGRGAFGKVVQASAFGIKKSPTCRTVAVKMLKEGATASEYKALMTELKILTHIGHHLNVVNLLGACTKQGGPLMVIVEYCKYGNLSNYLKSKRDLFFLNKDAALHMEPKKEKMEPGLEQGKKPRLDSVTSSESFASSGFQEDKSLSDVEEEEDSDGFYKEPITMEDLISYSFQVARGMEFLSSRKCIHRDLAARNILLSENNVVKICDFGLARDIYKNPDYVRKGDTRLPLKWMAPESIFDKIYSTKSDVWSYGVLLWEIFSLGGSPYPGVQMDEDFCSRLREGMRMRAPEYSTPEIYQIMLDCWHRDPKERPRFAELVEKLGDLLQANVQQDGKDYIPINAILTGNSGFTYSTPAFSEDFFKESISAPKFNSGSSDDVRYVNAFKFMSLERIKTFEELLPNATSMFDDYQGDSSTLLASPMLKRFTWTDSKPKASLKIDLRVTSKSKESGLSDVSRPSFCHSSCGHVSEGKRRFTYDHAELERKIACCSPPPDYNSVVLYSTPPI

[11] = target: T5, Neuropeptide Y receptor type 2 (Homo sapiens, UniProt P49146); assay type: cell membranes, Membrane; settings: kan-ts; note: in other assays of this panel Not Active means under 50% inhibition at 10 µM
T5 sequence (P49146 whole entry): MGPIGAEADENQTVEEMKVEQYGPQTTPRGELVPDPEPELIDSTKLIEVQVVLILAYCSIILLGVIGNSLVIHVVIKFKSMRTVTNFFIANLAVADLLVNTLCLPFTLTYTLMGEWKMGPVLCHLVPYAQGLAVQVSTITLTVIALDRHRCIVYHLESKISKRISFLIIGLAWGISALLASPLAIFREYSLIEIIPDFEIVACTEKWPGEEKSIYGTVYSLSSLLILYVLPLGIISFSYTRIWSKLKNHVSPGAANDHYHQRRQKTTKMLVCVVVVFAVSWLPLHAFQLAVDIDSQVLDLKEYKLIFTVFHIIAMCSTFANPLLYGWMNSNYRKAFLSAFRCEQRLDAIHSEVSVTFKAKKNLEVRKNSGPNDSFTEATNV

Chain of Melanocortin receptor 3 (P41968 whole entry): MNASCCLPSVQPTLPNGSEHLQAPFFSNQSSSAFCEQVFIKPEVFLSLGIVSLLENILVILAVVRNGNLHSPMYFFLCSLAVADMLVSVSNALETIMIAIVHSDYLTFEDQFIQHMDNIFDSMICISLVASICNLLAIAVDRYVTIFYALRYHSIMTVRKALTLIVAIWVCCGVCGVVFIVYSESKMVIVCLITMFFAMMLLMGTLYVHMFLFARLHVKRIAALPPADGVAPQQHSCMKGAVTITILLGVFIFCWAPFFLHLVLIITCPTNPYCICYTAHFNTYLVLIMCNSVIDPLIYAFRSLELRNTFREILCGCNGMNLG

Compound	IC50 (Melanocortin receptor 3)	IC50 (Progesterone receptor)	IC50 (Leukotriene C4 synthase)	IC50 [2]	Ki [2]	IC50 [3]	IC50 [4]	IC50 (D(4) dopamine receptor)	IC50 [5]	Ki [5]	IC50 (Histamine H2 receptor)	IC50 (Melanocortin receptor 4)	IC50 [6]	Ki [6]	IC50 [7]	Ki [7]	IC50 [8]	Ki [8]	IC50 [9]	Ki [9]	other results
NCCCC[C@H](N[C@@H](CCc1ccccc1)C(=O)O)C(=O)N1CCC[C@H]1C(=O)O [LISINOPRIL ANHYDROUS]	Not Active	Not Active	Not Active	Not Active	Not Active	Not Active	Not Active	Not Active	Not Active	Not Active	Not Active	Not Active	Not Active	Not Active	Not Active	Not Active	Not Active	Not Active	Not Active	Not Active	IC50 ([1]; insect cells): Not Active; IC50 [10]: Not Active; IC50 [11]: Not Active
COC(=O)c1ccc(O)cc1 [METHYLPARABEN]	Not Active	Not Active	Not Active	Not Active	Not Active	Not Active	Not Active	Not Active	Not Active	Not Active	Not Active	Not Active	Not Active	Not Active	Not Active	Not Active	Not Active	Not Active	Not Active	Not Active	IC50 ([1]; insect cells): Not Active; IC50 [10]: Not Active; IC50 [11]: Not Active
C[C@](N)(Cc1ccc(O)cc1)C(=O)O [METYROSINE]	Not Active	Not Active	Not Active	Not Active	Not Active	Not Active	Not Active	Not Active	Not Active	Not Active	Not Active	Not Active	Not Active	Not Active	Not Active	Not Active	Not Active	Not Active	Not Active	Not Active	IC50 ([1]; insect cells): Not Active; IC50 [10]: Not Active; IC50 [11]: Not Active
Clc1ccc(C(c2ccccc2Cl)C(Cl)Cl)cc1 (stereo not drawn) [MITOTANE]	Not Active	Not Active	Not Active	Not Active	Not Active	Not Active	Not Active	Not Active	Not Active	Not Active	Not Active	Not Active	Not Active	Not Active	Not Active	Not Active	Not Active	Not Active	Not Active	Not Active	IC50 ([1]; insect cells): Not Active; IC50 [10]: Not Active; IC50 [11]: Not Active
O=C1c2c(O)ccc(O)c2C(=O)c2c(NCCNCCO)ccc(NCCNCCO)c21 [MITOXANTRONE]	Not Active	Not Active	Not Active	Not Active	Not Active	Not Active	Not Active	Not Active	Not Active	Not Active	Not Active	Not Active	Not Active	Not Active	Not Active	Not Active	Not Active	Not Active	Not Active	Not Active	IC50 ([1]; read-out: IC50): 1260 nM; IC50 [10]: Not Active; IC50 [11]: Not Active
COc1c(C)c2c(c(O)c1C/C=C(\C)CCC(=O)OCCN1CCOCC1)C(=O)OC2 [MYCOPHENOLATE MOFETIL]	Not Active	Not Active	Not Active	Not Active	Not Active	Not Active	Not Active	Not Active	Not Active	Not Active	Not Active	Not Active	Not Active	Not Active	Not Active	Not Active	Not Active	Not Active	Not Active	Not Active	IC50 ([1]; insect cells): Not Active; IC50 [10]: Not Active; IC50 [11]: Not Active
